We go through 4 molecules from US20230103631A1, “PEPTIDES AS SELECTIVE GIP RECEPTOR AGONISTS” (Sanofi, priority 2020, published 2023).

As usually defined, the AUC(0-t) is the area under the concentration-time curve up to a stated or last time point. Lower therefore signals low exposure. For orientation: Cmax means the highest concentration seen after dosing. In general, half-life refers to the time needed for the level to fall by half in the phase considered. High values mean slow loss, low ones fast loss. By bioavailability is commonly meant the share of a dose that reaches the circulation, judged against a reference dose that is usually intravenous. Read a low bioavailability as little systemic uptake.

A short description of data set [1]: ThT assay for the assessment of physical stability. It counts as physicochemical. The conditions noted are these: ThT buffer system A: 100 mM phosphate buffer pH 7.4; 3 mg/ml, 37° C. The text has this:
Low physical stability of a peptide solution may lead to amyloid fibril formation, which is observed as well-ordered, thread-like macromolecular structures in the sample, which eventually may lead to gel formation. Thioflavin T (ThT) is widely used to visualize and quantify the presence of misfolded protein aggregates [Biancalana et al., Biochim. Biophys. Acta 2010, 1804(7), 1405]. […] Enzymol. 1999, 309, 274]. The time course for fibril formation often follows the characteristic shape of a sigmoidal curve and can be separated into three regions: a lag phase, a fast growth phase, and a plateau phase.
The typical fibril formation process starts with the lag phase in which the amount of partially folded peptide turned into fibrils is not significant enough to be detected. The lag-time corresponds to the time the critical mass of the nucleus is built. Afterwards, a drastic elongation phase follows, and fibril concentration increases rapidly.
Investigations were carried out to determine fibrillation tendencies under stress conditions by shaking at 37° C. within Fluoroskan Ascent FL or Fluoroskan Ascent.
For the tests in Fluoroskan Ascent (FL), 200 μl sample were placed into a 96-well mictrotiter plate PS, flat bottom, Greiner Fluotrac No. 655076. Plates were sealed with Scotch Tape (Qiagen). Samples were stressed by continuous cycles of 10 sec shaking at 960 rpm and 50 sec rest period at 37° C. The kinetic was monitored by measuring fluorescence intensity every 20 min.
Peptides were diluted in a buffer system to a final concentration of 3 mg/ml. 20 μl of a 10.1 mM ThT solution in H2O were added to 2 ml of peptide solution to receive a final concentration of 100 μM ThT. For each sample eight replicates were tested.
ThT buffer system A) 100 mM phosphate buffer pH 7.4
ThT buffer system B) 100 mM phosphate buffer pH 7.4, 2.7 mg/ml m-cresol
Lag time in hours (h) in Thioflavin T (ThT) assay of peptide samples was determined in ThT buffer system A as described in Methods.

Data set [2] in a line: Pharmacokinetic evaluation in rats. The conditions noted are these: male, SD, rat, plasma. It counts as in vivo. The method, then:
Compounds were administered in a suitable buffer system, e.g. PBS buffer solution at pH7.4 or DPBS solution at concentrations of 0.05, 0.1, 0.5 or 1 mg/ml depending on dose, species and administration volume.
Male SD rats were dosed 0.25 mg/kg, 0.5 mg/kg or 1 mg/kg intravenously (i.v.) or subcutaneously (s.c.). Blood samples were collected after 0.08, 0.25, 0.5, 1, 2, 4, 8, 24, 32, and 48 h post i.v. application and 0.25, 0.5, 1, 2, 4, 8, 24, 32, and 48 h post s.c. application, respectively. Plasma samples were analyzed after protein precipitation via liquid chromatography mass spectrometry (LC/MS). PK parameters and half-life were calculated using Phoenix-WinNonlin 8.1 using a non-compartmental model and linear trapezoidal interpolation calculation.
Pharmacokinetic profiles were determined as described in Methods.

*1 amine or outer side, *2 acyl side, *3 side chain or, on linkers, in order; H or OH if unused. Where a SMILES comes first, the peptide text is derived from it. Side-chain parts run from the residue outwards. [ ]: non-standard residue; d: D form. The star is where a group is joined. C18 diacid = O=C(O)CCCCCCCCCCCCCCCCC(=O)*; γGlu = O=C(O)[C@H](CCC(=O)[*:2])N[*:1]; NMeY = CN[C@@H](Cc1ccc(O)cc1)C(=O)O; AEEA = NCCOCCOCC(=O)O; Aib = CC(C)(N)C(=O)O; Sar = CNCC(=O)O

For `CC[C@H](C)[C@H](NC(=O)[C@H](CCCNC(=N)N)NC(=O)[C@H](CC(=O)O)NC(=O)[C@H](CCCCNC(=O)COCCOCCNC(=O)COCCOCCNC(=O)CC[C@H](NC(=O)CCCCCCCCCCCCCCCCC(=O)O)C(=O)O)NC(=O)C(C)(C)NC(=O)[C@@H](NC(=O)[C@H](CO)NC(=O)[C@H](CC(C)C)NC(=O)[C@H](CC(=O)O)NC(=O)[C@H](CO)NC(=O)[C@@H](NC(=O)[C@H](Cc1ccccc1)NC(=O)[C@@H](NC(=O)CNC(=O)[C@H](CCC(=O)O)NC(=O)C(C)(C)NC(=O)[C@@H](N)Cc1ccc(O)cc1)[C@@H](C)O)[C@@H](C)CC)[C@@H](C)CC)C(=O)N[C@@H](Cc1c[nH]cn1)C(=O)N[C@@H](CCC(N)=O)C(=O)NC(C)(C)C(=O)N[C@@H](CCC(=O)O)C(=O)N[C@@H](Cc1ccccc1)C(=O)N[C@H](C(=O)N[C@@H](CCC(=O)O)C(=O)N[C@@H](Cc1c[nH]c2ccccc12)C(=O)N[C@@H](CC(C)C)C(=O)N[C@@H](CC(C)C)C(=O)N[C@@H](C)C(=O)N[C@@H](CCC(N)=O)C(=O)NCC(=O)N1CCC[C@H]1C(=O)N[C@@H](CO)C(=O)N[C@@H](CO)C(=O)NCC(=O)N[C@@H](C)C(=O)N1CCC[C@H]1C(=O)N1CCC[C@H]1C(=O)N1CCC[C@H]1C(=O)N[C@@H](CO)C(N)=O)[C@@H](C)CC` [SEQ ID NO: 4, H2N-Y-Aib-E-G-T-F-I-S-D-I-S-I-Aib-K[{AEEA}2-gGlu-C18OH]-D-R-I-H-Q-Aib-E-F-I-E-W-I-L-A-Q-G-P-S-S-G-A-P-P-P-S-NH2] (H-Y[Aib]EGTFISDLSI[Aib]K([AEEA-AEEA-γGlu-C18 diacid])DRIHQ[Aib]EFIEWLLAQGPSSGAPPPS-NH2), in data set [1], the “Increase in FI” value was “no” and the “Lag time before increase” value was >45 h. In data set [2] (iv, 0.25 mg/kg i.v.), this molecule gave an AUC(0-t) of 50200 ng·h/mL, a Cmax of 6890 ng/mL and a half-life of 12.3 h. In data set [2] (iv, 0.25 mg/kg i.v., read-out: CI (converted)), the clearance was 4.68 mL/h/kg. Further, in data set [2] (sc, 0.5 mg/kg s.c.), the area under the curve AUC(0-t) was found to be 44400 ng·h/mL, the Cmax was 1270 ng/mL, the bioavailability came to 52% and the half-life is 16.5 h.
Regarding `CC[C@H](C)[C@H](NC(=O)[C@H](CCCNC(=N)N)NC(=O)[C@H](CC(=O)O)NC(=O)[C@H](CCCCNC(=O)CNC(=O)CNC(=O)CNC(=O)CC[C@H](NC(=O)CCCCCCCCCCCCCCCCC(=O)O)C(=O)O)NC(=O)C(C)(C)NC(=O)[C@@H](NC(=O)[C@H](CO)NC(=O)[C@H](CC(C)C)NC(=O)[C@H](CC(=O)O)NC(=O)[C@H](CO)NC(=O)[C@@H](NC(=O)[C@H](Cc1ccccc1)NC(=O)[C@@H](NC(=O)CNC(=O)[C@H](CCC(=O)O)NC(=O)C(C)(C)NC(=O)[C@@H](N)Cc1ccc(O)cc1)[C@@H](C)O)[C@@H](C)CC)[C@@H](C)CC)C(=O)N[C@@H](Cc1c[nH]cn1)C(=O)N[C@@H](CCC(N)=O)C(=O)NC(C)(C)C(=O)N[C@@H](CCC(=O)O)C(=O)N[C@@H](Cc1ccccc1)C(=O)N[C@H](C(=O)N[C@@H](CCC(=O)O)C(=O)N[C@@H](Cc1c[nH]c2ccccc12)C(=O)N[C@@H](CC(C)C)C(=O)N[C@@H](CC(C)C)C(=O)N[C@@H](C)C(=O)N[C@@H](CCC(N)=O)C(=O)NCC(=O)N1CCC[C@H]1C(=O)N[C@@H](CO)C(=O)N[C@@H](CO)C(=O)NCC(=O)N[C@@H](C)C(=O)N1CCC[C@H]1C(=O)N1CCC[C@H]1C(=O)N1CCC[C@H]1C(=O)N[C@@H](CO)C(N)=O)[C@@H](C)CC` [SEQ ID NO: 5, H2N-Y-Aib-E-G-T-F-I-S-D-I-S-I-Aib-K[{Gly}3-gGlu-C18OH]-D-R-I-H-Q-Aib-E-F-I-E-W-I-L-A-Q-G-P-S-S-G-A-P-P-P-S-NH2] (H-Y[Aib]EGTFISDLSI[Aib]K([Gly-Gly-Gly-γGlu-C18 diacid])DRIHQ[Aib]EFIEWLLAQGPSSGAPPPS-NH2), in data set [1], the “Increase in FI” value is recorded as “no” and the “Lag time before increase” value is >45 h.
Take `CC[C@H](C)[C@H](NC(=O)[C@H](CCCNC(=N)N)NC(=O)[C@H](CC(=O)O)NC(=O)[C@H](CCCCNC(=O)CN(C)C(=O)CN(C)C(=O)CN(C)C(=O)CC[C@H](NC(=O)CCCCCCCCCCCCCCCCC(=O)O)C(=O)O)NC(=O)C(C)(C)NC(=O)[C@@H](NC(=O)[C@H](CO)NC(=O)[C@H](CC(C)C)NC(=O)[C@H](CC(=O)O)NC(=O)[C@H](CO)NC(=O)[C@@H](NC(=O)[C@H](Cc1ccccc1)NC(=O)[C@@H](NC(=O)CNC(=O)[C@H](CCC(=O)O)NC(=O)C(C)(C)NC(=O)[C@@H](N)Cc1ccc(O)cc1)[C@@H](C)O)[C@@H](C)CC)[C@@H](C)CC)C(=O)N[C@@H](Cc1c[nH]cn1)C(=O)N[C@@H](CCC(N)=O)C(=O)NC(C)(C)C(=O)N[C@@H](CCC(=O)O)C(=O)N[C@@H](Cc1ccccc1)C(=O)N[C@H](C(=O)N[C@@H](CCC(=O)O)C(=O)N[C@@H](Cc1c[nH]c2ccccc12)C(=O)N[C@@H](CC(C)C)C(=O)N[C@@H](CC(C)C)C(=O)N[C@@H](C)C(=O)N[C@@H](CCC(N)=O)C(=O)NCC(=O)N1CCC[C@H]1C(=O)N[C@@H](CO)C(=O)N[C@@H](CO)C(=O)NCC(=O)N[C@@H](C)C(=O)N1CCC[C@H]1C(=O)N1CCC[C@H]1C(=O)N1CCC[C@H]1C(=O)N[C@@H](CO)C(N)=O)[C@@H](C)CC` [SEQ ID NO: 6, H2N-Y-Aib-E-G-T-F-I-S-D-I-S-I-Aib-K[{N-MeGly}3-gGlu-C18OH]-D-R-I-H-Q-Aib-E-F-I-E-W-I-L-A-Q-G-P-S-S-G-A-P-P-P-S-NH2] (H-Y[Aib]EGTFISDLSI[Aib]K([Sar-Sar-Sar-γGlu-C18 diacid])DRIHQ[Aib]EFIEWLLAQGPSSGAPPPS-NH2): in data set [1], the “Increase in FI” value is on record as “no” and the “Lag time before increase” value is on record as >45 h.
For `CC[C@H](C)[C@H](NC(=O)[C@H](CCCNC(=N)N)NC(=O)[C@H](CC(=O)O)NC(=O)[C@H](CCCCNC(=O)COCCOCCNC(=O)COCCOCCNC(=O)CC[C@H](NC(=O)CCCCCCCCCCCCCCCCC(=O)O)C(=O)O)NC(=O)C(C)(C)NC(=O)[C@@H](NC(=O)[C@H](CO)NC(=O)[C@H](CC(C)C)NC(=O)[C@H](CC(=O)O)NC(=O)[C@H](CO)NC(=O)[C@@H](NC(=O)[C@H](Cc1ccccc1)NC(=O)[C@@H](NC(=O)CNC(=O)[C@H](CCC(=O)O)NC(=O)C(C)(C)NC(=O)[C@H](Cc1ccc(O)cc1)NC)[C@@H](C)O)[C@@H](C)CC)[C@@H](C)CC)C(=O)N[C@@H](Cc1c[nH]cn1)C(=O)N[C@@H](CCC(N)=O)C(=O)NC(C)(C)C(=O)N[C@@H](CCC(=O)O)C(=O)N[C@@H](Cc1ccccc1)C(=O)N[C@H](C(=O)N[C@@H](CCC(=O)O)C(=O)N[C@@H](Cc1c[nH]c2ccccc12)C(=O)N[C@@H](CC(C)C)C(=O)N[C@@H](CC(C)C)C(=O)N[C@@H](C)C(=O)N[C@@H](CCC(N)=O)C(=O)NCC(=O)N1CCC[C@H]1C(=O)N[C@@H](CO)C(=O)N[C@@H](CO)C(=O)NCC(=O)N[C@@H](C)C(=O)N1CCC[C@H]1C(=O)N1CCC[C@H]1C(=O)N1CCC[C@H]1C(=O)N[C@@H](CO)C(N)=O)[C@@H](C)CC` [SEQ ID NO: 8, MeHN-Y-Aib-E-G-T-F-I-S-D-I-S-I-Aib-K[{AEEA}2-gGlu-C180H]-D-R-I-H-Q-Aib-E-F--E-W-I-L-A-Q-G-P-S-S-G-A-P-P-P-S-NH2] (H-[NMeY][Aib]EGTFISDLSI[Aib]K([AEEA-AEEA-γGlu-C18 diacid])DRIHQ[Aib]EFIEWLLAQGPSSGAPPPS-NH2) the same measures were “no” and >45 h.
